Columns and labels:
[1] = systemic administration; cited from earlier work
[2] = tested on: GBM6 orthotopic xenograft; test: Kaplan-Meier survival, orthotopic GBM6 xenograft; format: in vivo, NOD-SCID mice
Protocol: The mice were closely monitored during the entire treatment period until the time of euthanasia. […] Mice treated with NP-siMGMT-CTX extended their lifespan for 18.3 days while mice treated with TMZ alone extended their lifespan for 2.3 days.
Orthotopic xenograft tumor model and therapy response experiments. All xenograft therapy evaluations were conducted using a GBM6 orthotopic tumor model. The human GBM6 tumor was provided by the Mayo Clinic. The procedure for establishing intracranial tumors was described previously (B. L. Carlson, J. L. Pokorny, M. A. Schroeder, J. N. Sarkaria, Current Protocols in Pharmacology 2011, 52, 1; B. L. Carlson, P. T. Grogan, A. C. Mladek, M. A. Schroeder, G. J. Kitange, P. A. Decker, C. Giannini, W. Wu, K. A. Ballman, C. D. James, J. N. Sarkaria, International Journal of Radiation Oncology, Biology, Physics 2009, 75, 212). In brief, flank GBM6 tumor xenografts were harvested, mechanically disaggregated and stereotaxically injected into the frontal lobe of 6-week-old female NOD-SCID mice (Jackson Laboratories). […] At about 4 weeks post-tumor implantation, mice with similar tumor size as evaluated by MRI were randomized to one treatment group treated with NP-siMGMT-CTX+TMZ, and three control groups treated with either NP-siGFP-CTX+TMZ, TMZ only, or untreated. […]

GBM6 cells = test: Alamar blue viability assay, GBM6 stem-like cells; settings: GBM6 (cancer stem cell)
Protocol: Cell survival assays. Alamar blue assay was used to evaluate cell viability following the manufacture's protocol (Life Technologies). […] AB assay was conducted at 2 days after transfection. Cells were washed with PBS (pH 7.4) three times before adding 10% AB in complete growth medium to the wells. After incubation for 1 hr, the AB solution was transferred to a 96-well plate, and fluorescent emissions at an excitation wavelength of 550 nm and an emission wavelength of 590 nm were read on a SpectraMax M5 microplate reader (Molecular Devices).

A1235 cells = test: Clonogenic assay, MGMT-deficient A1235 cells; settings: A1235 (GBM cell line)
SF763 cells = test: Clonogenic assay, MGMT-proficient SF763 cells; settings: SF763 (GBM cell line)
primary brain tumors = settings: cited from earlier work

Nc1nc(OCc2ccccc2)c2nc[nH]c2n1 [BG, O^6-benzylguanine]
toxicity in combination with TMZ [1]: severe myelotoxicity

Cn1nnc2c(C(N)=O)ncn2c1=O [TMZ, temozolomide]
median survival ([2]; NPs given with TMZ per FIG. 5A schedule, TMZ 100 mg/kg oral): 40.8 ± 2.7 days | extension of lifespan ([2]; versus untreated mice): 2.3 days | TMZ required for effective treatment (GBM6 cells): 4 mM | TMZ required for effective treatment (A1235 cells): 10 µM | TMZ required for effective treatment (SF763 cells): 400 µM

chlorotoxin [CTX]
primary brain tumors targeted, of those examined (primary brain tumors): 74 out of 79

— patent publication US20230405145A1, “IRON OXIDE NANOPARTICLE FOR SUPPRESSING DRUG-RESISTANT GENE FOR THE TREATMENT OF GLIOBLASTOMA” (University of Washington, priority 2020, published 2023)
